The target of experiment [1] is purified recombinant c-Met kinase domains (Homo sapiens, UniProt P08581). Briefly: Biochemical kinase assay.
The target in the next experiment is c-Met (Homo sapiens, UniProt P08581). The experiment is classed as cell-based.
Chain of c-Met (P08581 25-1390): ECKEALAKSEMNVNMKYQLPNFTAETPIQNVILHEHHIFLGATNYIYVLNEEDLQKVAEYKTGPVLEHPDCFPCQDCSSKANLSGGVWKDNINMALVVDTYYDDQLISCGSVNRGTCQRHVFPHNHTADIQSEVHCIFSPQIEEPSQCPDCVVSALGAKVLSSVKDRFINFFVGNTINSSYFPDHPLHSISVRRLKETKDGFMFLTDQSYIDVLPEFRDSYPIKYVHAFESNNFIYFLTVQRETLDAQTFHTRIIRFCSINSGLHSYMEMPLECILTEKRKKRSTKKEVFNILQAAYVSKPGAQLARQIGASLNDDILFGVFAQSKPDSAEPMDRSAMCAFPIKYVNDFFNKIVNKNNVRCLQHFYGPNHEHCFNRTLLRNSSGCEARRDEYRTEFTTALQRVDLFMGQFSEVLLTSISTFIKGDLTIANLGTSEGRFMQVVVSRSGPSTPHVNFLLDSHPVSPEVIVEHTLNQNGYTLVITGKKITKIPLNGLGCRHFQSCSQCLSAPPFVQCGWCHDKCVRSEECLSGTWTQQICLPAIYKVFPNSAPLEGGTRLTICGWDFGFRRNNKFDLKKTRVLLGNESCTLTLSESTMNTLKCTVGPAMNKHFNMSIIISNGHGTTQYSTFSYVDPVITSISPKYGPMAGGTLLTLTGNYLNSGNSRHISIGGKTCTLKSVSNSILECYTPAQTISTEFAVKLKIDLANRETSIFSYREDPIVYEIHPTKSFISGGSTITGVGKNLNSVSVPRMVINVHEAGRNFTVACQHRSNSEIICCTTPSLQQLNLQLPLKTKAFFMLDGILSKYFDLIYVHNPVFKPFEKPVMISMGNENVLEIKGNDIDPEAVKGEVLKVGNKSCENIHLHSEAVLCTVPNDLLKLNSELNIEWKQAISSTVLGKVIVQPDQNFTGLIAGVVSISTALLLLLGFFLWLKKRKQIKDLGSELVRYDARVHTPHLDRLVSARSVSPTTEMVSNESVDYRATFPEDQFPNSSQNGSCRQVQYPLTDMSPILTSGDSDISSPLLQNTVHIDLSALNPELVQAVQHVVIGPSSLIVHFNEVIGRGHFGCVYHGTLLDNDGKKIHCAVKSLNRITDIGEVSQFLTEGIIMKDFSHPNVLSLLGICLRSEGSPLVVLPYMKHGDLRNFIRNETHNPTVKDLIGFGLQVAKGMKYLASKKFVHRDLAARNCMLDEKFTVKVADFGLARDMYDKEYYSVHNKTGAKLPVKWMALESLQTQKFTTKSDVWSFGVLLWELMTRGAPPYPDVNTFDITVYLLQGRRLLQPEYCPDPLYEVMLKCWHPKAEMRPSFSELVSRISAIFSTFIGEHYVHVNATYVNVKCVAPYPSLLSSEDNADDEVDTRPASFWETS

Chain of purified recombinant c-Met kinase domains (P08581 1078-1345 limits assumed): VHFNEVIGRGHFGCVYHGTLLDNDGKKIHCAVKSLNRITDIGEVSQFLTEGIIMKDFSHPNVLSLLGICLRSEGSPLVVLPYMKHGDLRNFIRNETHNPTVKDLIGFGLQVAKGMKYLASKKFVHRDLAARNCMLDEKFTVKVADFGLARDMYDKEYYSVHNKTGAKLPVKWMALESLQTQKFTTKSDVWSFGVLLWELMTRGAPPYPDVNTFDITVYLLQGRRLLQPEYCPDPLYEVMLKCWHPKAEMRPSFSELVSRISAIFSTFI

For orientation: IC50 means the point on the concentration scale where inhibition reaches its midpoint. Take `COc1cc2ncnc(Oc3ccc(Nc4nccc5[nH]cc(-c6ccc(C(F)(F)F)cc6)c(=O)c45)cc3F)c2cc1OC` [Compound 5d]: the IC50 in experiment [1] came to 0.0403 µM; against c-Met, 25 µM.

For the origin of these results see article PMC7267738 (iScience, 2020).
